Experimental data: patent publication US8552064B2, “Suramin and derivatives thereof as topical microbicide and contraceptive” (Eastern Virginia Medical School, priority 2005, dated 2013)
In brackets after ≈: the same amount, converted by molar mass. Like-named read-outs stand apart in the source and are kept apart here.

System: HIV-1 Ba-L
Experiment: C-MAGI/Ba-L assay (viral entry inhibition, BaL)
Type: cell-based
Conditions: for IC50: Human immunodeficiency virus 1, BAL
Experimental: The C-MAGI/Ba-L assays were carried out with MAGI-CCR-5 cells. The cell line was maintained in DMEM medium containing 10% FBS, 100 U/ml penicillin, 300 μg/mL glutamate and selection antibiotics as indicated above. Before assay, the cells were placed in 96 well flat tissue culture plates at 1×10^4 cells per well, and incubated overnight in the absence of antibiotics. The next day, medium was removed, and virus and compound (100 μL virus (HIVBa-L)+100 μL compound) were added. The cultures were incubated for 2 hours to facilitate virus attachment. After this incubation, the medium is removed from the wells, replaced with fresh compound-free medium, washed twice and finally incubated at 37° C. for 2 days in fresh medium. Following incubation, the medium was removed and induction of β-galactosidase enzyme activity was detected by chemiluminescence. β-galactosidase activity was detected using a chemiluminescence substrate, following the manufacture's instructions (Tropix). The TC50 and IC50 are determined using linear regression and a therapeutic index or antiviral index calculated. The results of this assay are provided herein.

For `Cc1ccc(C(=O)Nc2ccc(S(=O)(=O)O)c3cc(S(=O)(=O)O)cc(S(=O)(=O)O)c23)cc1NC(=O)c1cccc(NC(=O)Nc2cccc(C(=O)Nc3cc(C(=O)Nc4ccc(S(=O)(=O)O)c5cc(S(=O)(=O)O)cc(S(=O)(=O)O)c45)ccc3C)c2)c1` [Suramin, 8,8′-(carbonylbis(imino-3,1-phenylenecarbonylimino(4-methyl-3,1-phenylene)carbonylimino))bis-1,3,5-naphthalene trisulfonic acid], the “Potency, HIV-1 MAGI-Bal” value was “High”, the IC50 (HeLa, 2 h, read-out: IC50, Cell-Free Strains BaL, CD4/coreceptor expressing HeLa cells, incubation 2 hours) was 5.5 µg/mL (≈ 4.24 µM) and the IC50 (2h-incubation, read-out: IC50 against Bal) was 0.39 µg/mL (≈ 0.301 µM).
